Assay results as given in patent publication US20080221052A1, “Modulation of Wrn-Mediated Telomere-Initiated Cell Signaling” (priority 2004, published 2008).
{P} = phosphate

Tests used:
[1] = system: p53, E2F1 transcription factor; assay: Western analysis of p53 and E2F1 in Jurkat cells; type: cell-based, human; conditions: by 24 hours after addition
[2] = system: Jurkat cells; assay: FACS analysis of propidium iodide stained Jurkat cells (S phase, sub-G0/G1 apoptosis); type: cell-based, human
Method: FIGS. 1A-1H show FACS analysis of propidium iodide stained Jurkat cells (immortalized T lymphocytes), treated with diluent (FIGS. 1A and 1E); 40 μM 11 mer-1 pGTTAGGGTTAG (SEQ ID NO: 2) (FIGS. 1B and 1F); 40 μM 11 mer-2 pCTAACCCTAAC (SEQ ID NO: 3) (FIGS. 1C and 11G); 40 μM 11 mer-3 pGATCGATCGAT (SEQ ID NO: 4) (FIGS. 1D and 1H). Jurkat cells were treated with the stated reagents for 48 hours before analysis (FIG. 1A-1D) or 72 hours (FIGS. 1E-1H).
FIGS. 2A-2F are profiles showing the results of fluorescence activated cell sorting, for the following additions to the cells: FIG. 2A, diluent; FIG. 2B, 0.4 μM 11 mer-1; FIG. 2C, 0.4 μM 11 mer-1-S; FIG. 2D, diluent; FIG. 2E, 40 μM 11 mer-1; FIG. 2F, 40 μM 11 mer-1-S.
Oligonucleotides homologous to the telomere overhang repeat sequence (TTAGGG; SEQ ID NO: 1), sequence (11 mer-1: pGTTAGGGTTAG; SEQ ID NO: 2), complementary to this sequence (11 mer-2: pCTAACCCTAAC; SEQ ID NO: 3) and unrelated to the telomere sequence (11 mer-3: pGATCGATCGAT; SEQ ID NO: 4) were added to cultures of Jurkat cells, a line of human T cells reported to undergo apoptosis in response to telomere disruption. Within 48 hours, 50% of the cells treated with 40 μM of SEQ ID NO: 2 had accumulated in the S phase, compared to 25-30% for control cells (p<0.0003, non-paired t-test; see FIGS. 1A-1D), and by 72 hours, 13% of these cells were apoptotic as determined by a sub-G0/G1 DNA content, compared to 2-3% of controls (p<0.007, non-paired t-test; see FIGS. 1E-1H). At 96 hours, 20±3% of the 11 mer-1 treated cells were apoptotic compared with 3-5% of controls (p<0.0001, non-paired t-test). To exclude preferential uptake of the 11 mer-1 as an explanation of its singular effects, Jurkat cells were treated with oligonucleotides labeled on the 3′ end with fluorescein phosphoramidite, then subjected to confocal microscopy and FACS analysis. The fluorescence intensity of the cells was the same after all treatments at 4 hours and 24 hours.
Cultures of Jurkat human T cells were treated with either diluent, 11 mer-1 (SEQ ID NO: 1) or the phosphorothioate 11 mer-1 (11 mer-1-S) for 96 hours, then collected and processed for FACS analysis. Two concentrations of the oligonucleotides were tested, 0.4 μM (FIGS. 2A-2C) and 40 μM (FIGS. 2D-2F).

[3] = target: T1, WRN (Homo sapiens, UniProt Q14191); assay: WRN siRNA knock-down and T-oligo response, western blot in normal neonatal fibroblasts; type: cell-based; conditions: 40 μM T-oligo, 24 or 48 hours, WRN siRNA-treated cells
T1 construct: endogenous in cells; host or cells: normal neonatal fibroblasts
T1 sequence (Q14191 whole entry): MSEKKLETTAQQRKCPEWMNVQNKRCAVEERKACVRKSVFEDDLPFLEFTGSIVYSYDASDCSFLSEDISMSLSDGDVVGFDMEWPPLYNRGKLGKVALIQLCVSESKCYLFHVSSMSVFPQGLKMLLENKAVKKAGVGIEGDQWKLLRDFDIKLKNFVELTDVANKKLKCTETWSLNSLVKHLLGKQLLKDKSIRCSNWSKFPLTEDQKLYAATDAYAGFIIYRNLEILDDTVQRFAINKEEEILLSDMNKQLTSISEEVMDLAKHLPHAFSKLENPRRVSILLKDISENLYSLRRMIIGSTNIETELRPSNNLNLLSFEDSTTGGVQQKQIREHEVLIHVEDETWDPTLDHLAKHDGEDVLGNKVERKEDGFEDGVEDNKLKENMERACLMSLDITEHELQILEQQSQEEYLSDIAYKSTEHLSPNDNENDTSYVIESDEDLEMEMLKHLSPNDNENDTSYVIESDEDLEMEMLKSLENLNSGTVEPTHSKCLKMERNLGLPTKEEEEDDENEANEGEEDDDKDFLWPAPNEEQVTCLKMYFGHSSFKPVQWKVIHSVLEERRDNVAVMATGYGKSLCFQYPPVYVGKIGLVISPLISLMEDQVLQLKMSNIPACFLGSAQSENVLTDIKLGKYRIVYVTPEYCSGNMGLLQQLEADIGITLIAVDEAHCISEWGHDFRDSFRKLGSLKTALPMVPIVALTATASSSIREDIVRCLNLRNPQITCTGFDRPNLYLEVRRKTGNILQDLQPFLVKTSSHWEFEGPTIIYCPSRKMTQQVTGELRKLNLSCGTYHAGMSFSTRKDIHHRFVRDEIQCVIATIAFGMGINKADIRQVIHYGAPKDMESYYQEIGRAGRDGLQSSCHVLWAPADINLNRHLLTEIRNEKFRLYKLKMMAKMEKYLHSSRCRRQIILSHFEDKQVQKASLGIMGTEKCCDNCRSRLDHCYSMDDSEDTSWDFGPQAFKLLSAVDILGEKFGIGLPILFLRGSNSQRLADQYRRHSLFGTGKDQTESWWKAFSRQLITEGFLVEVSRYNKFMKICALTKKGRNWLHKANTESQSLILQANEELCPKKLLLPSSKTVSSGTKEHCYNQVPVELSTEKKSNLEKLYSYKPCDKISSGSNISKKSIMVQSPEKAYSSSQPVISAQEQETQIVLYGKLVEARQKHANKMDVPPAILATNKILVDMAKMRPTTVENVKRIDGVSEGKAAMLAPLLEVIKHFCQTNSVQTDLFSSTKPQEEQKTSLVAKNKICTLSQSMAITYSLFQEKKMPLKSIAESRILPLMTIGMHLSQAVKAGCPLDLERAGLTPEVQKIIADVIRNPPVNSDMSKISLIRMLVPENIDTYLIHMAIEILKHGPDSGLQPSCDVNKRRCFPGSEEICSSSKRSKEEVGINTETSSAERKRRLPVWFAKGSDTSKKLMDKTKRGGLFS
Method: Protein level of WRN on the day of T-oligo treatment is indicated at “0 Hrs”. T-oligo (40 μM, T) or diluent (D) were added and cells collected after 24 or 48 hours for western analysis. Control fibroblasts were either sham (IR, −) or irradiated with 10 Gy IR (IR, +) and collected after one hour. The western blot was probed with antibodies, recognizing WRN, p53 phosphoserine 15 or phospho H2AX.
Normal neonatal fibroblasts were treated on 2 consecutive days with 50 ρmol of WRN siRNA or […] of siRNA directed against the control green fluorescent protein (GFP). One day after the second siRNA treatment, representative cultures were collected for western blot analysis to assess the effectiveness of the WRN siRNA in eliminating the protein. Also at this time, duplicate cultures of WRN siRNA-treated or GFP siRNA-treated cultures were given either 40 μM T-oligo (11 mer-1; SEQ ID NO: 2) or an equal amount of diluent. Cells from all conditions were collected one or two days after the addition of T-oligo or diluent and were analyzed by western blot for p53 phosphorylation on serine 15 and phosphorylation of histone H2AX, both well-documented DNA damage responses (Lambert et al., 1998, J Biol Chem 273, 33048-53; Burma et al., 2001, J Biol Chem 276, 42462-7). Also as controls, cell lysates from cells sham-irradiated or irradiated with 10 Gy ionizing radiation (1R) were included. […]

[4] = system: p53 serine 37; assay: Western analysis of p53 phosphorylated on serine 37 in newborn fibroblasts; type: cell-based; conditions: 40 μM
[5] = system: S91 mouse melanoma cells; assay: Melanin content of S91 mouse melanoma cells; type: cell-based; conditions: 6 days
Method: FIG. 4 is a bar graph showing the melanin content (in pg/cell) of cells treated with diluent, pTpT or pTspT.
FIG. 5 is a bar graph showing the melanin content (in pg/cell) of cells treated with diluent, 11 mer-1 or 11 mer-1-S.
Cultures of S91 mouse melanoma cells (100,000 cells/38 cm^2) were treated with 100 μM pTpT or phosphorothioate pTpT (pTspT) (FIG. 4) or 40 μM 11 mer-1 or the phosphorothioate 11 mer-1 (11 mer-1-S) (FIG. 5) for 6 days and were then collected, counted and assayed for melanin content.

[6] = system: DNA-PKCS; assay: Western blot with antibody against ATM phosphoserine 1981 in normal newborn fibroblasts; type: cell-based; conditions: 40 μM, 4-48 hours
Method: The positions of ATM and DNA-PKCS are indicated. Sham and irradiated (10 Gy IR) fibroblasts were included as controls.
Normal newborn fibroblasts were treated with 40 μM T-oligo or an equal volume of diluent for 4, 6, 8, 16, 24 or 48 hours then collected and analyzed by Western blot using an antibody against ATM phosphoserine 1981. […] The phosphorylated protein was shown in subsequent experiments to co-migrate with the catalytic subunit of ATM-related DNA-dependent protein kinase (DNA-PKCS), which would reasonably be expected to bind an antibody raised against the highly homologous ATM protein.

[7] = system: keratinocyte cell line (SSC12F); assay: S-phase arrest by FACS in keratinocyte cell line; type: cell-based; conditions: 48 hours, 11 mer-1 alone (10 μM per FIG. 3B); diluent control 26%
Method: FIGS. 3A-3G are profiles showing the results of fluorescence activated cell sorting, for the following additions to the cells: FIG. 3A, diluent; FIG. 3B, 10 μM 11 mer-1; FIG. 3C, 10 μM 11 mer-1 and 1 μM 11 mer-1-S; FIG. 3D, 10 μM 11 mer-1 and 5 μM 11 mer-1-S; FIG. 3E, 10 μM 11 mer-1 and 10 μM 11 mer-1-S; FIG. 3F, 20 μM 1 mer-1-S; FIG. 3G, 10 μM 11 mer-1-S.
Forty-three percent of the cells were in the S phase, compared to 26% of the control, diluent-treated cells.

[8] = system: S91 cells; assay: UV-induced melanogenesis in S91 cells (melanin content, OD 475 nm); type: cell-based, mouse; conditions: 100 μM, one week
Text: FIG. 6 is a bar graph showing the melanin content (in pg/cell) of cells that have been sham-treated (no irradiation, no oligonucleotides), or treated with ultraviolet light (UV), or unirradiated but given pTspT, or irradiated with UV and given pTspT.
Duplicate cultures of S91 cells (100,000 cells/39 cm^2) were either sham-irradiated or irradiated with 5 mJ/cm^2 solar-simulated light from a 1 kW xenon arc solar-simulator (XMN 1000-21, Optical Radiation, Azuza, Calif.) metered at 285 5 nm using a research radiometer (model IL1700A, International Light, Newburyport, Mass.). Two sham-irradiated plates were then supplemented with 100 μM pTspT and two irradiated cultures were similarly treated with pTspT. After one week, cells were collected, counted and analyzed for melanin content by dissolving the cell pellets in 1 N NaOH and measuring the optical density at 475 nm. […] However, this response was blocked by the addition of pTspT (FIG. 6). In addition, the constitutive pigmentation of these cells was reduced by the pTspT in the sham-irradiated cultures, similar to the data presented in FIGS. 4 and 5.

Substance | level of the E2F1 transcription factor [1] | p53 level [1] | effect on exponentially growing cell cycle profile ([2]; 0.4 μM, 96 hours) | apoptotic cells (sub-G0/G1 DNA content) ([2]; 40 μM, 72 hours, controls 2-3%) [%] | apoptosis (sub-G0/G1 peak) ([2]; 40 μM, 96 hours) | cells accumulated in the S phase ([2]; 40 μM, within 48 hours, control cells 25-30%) [%] | apoptotic cells ([2]; 96 hours, controls 3-5%) [%] | ability to induce phosphorylation of H2AX after WRN knock-down [3] | ability to induce phosphorylation of p53 (serine 15) after WRN knock-down [3] | phosphorylation of p53 serine 37 [4] | stimulation of melanogenesis (melanin content) ([5]; 40 μM) | phosphorylation of 450 kDa protein (DNA-PKCS) [6] | cells in the S phase [7] | stimulation of melanogenesis (melanin content) ([5]; 100 μM) | UV-induced doubling of melanin content ([8]; 5 mJ/cm^2 solar-simulated light) | constitutive pigmentation ([8]; sham-irradiated cultures) | constitutive pigmentation ([5]; 100 μM)
pGTTAGGGTTAG (DNA, 5' {P}, backbone not given here) [11 mer-1] | concomitant increase | increase | neither of the oligonucleotides affected | 13 | induced extensive apoptosis | 50 | 20±3 | dramatically reduced | dramatically reduced | phosphorylated | stimulated melanogenesis | leads to phosphorylation | Forty-three | – | – | – | –
pTpT | – | – | – | – | – | – | – | – | – | – | – | – | – | stimulated melanogenesis | – | – | –
pTspT | – | – | – | – | – | – | – | – | – | – | – | – | – | did not | blocked | reduced | reduced the constitutive pigmentation
